# Source: patent US12042476B2, “Methods for the treatment of lysosomal storage diseases” (McMaster University, priority 2022, dated 2024)
# Values joined by “and” are separate entries in the source; they are usually repeats but may differ in a detail not shown here. Equal entries are not always repeated. “Also recorded” adds a separate entry of the source.
# Key:
# Format in all cases: in vivo, mouse
# [1] = tested on: hexb^−/− mice; test: Survival of Sandhoff (hexb−/−) mice given 4-PBA in drinking water, Mantel-Cox analysis
# Method: Mouse work was conducted under the animal utilization protocol (AUP) in accordance with the Ontario Animals for Research Act specifications and the Animal Research Ethics Board (AREB) guidelines. The Sandhoff model mice (hexb^−/− on a C57BL/6 background) were generously donated by Dr. R. Gravel (University of Calgary, Canada) and have been previously characterized.
# (§1) Protocol one: Two groups of hexb^−/− mice (n=10 per group); One group was administered 4-PBA (Scandinavian Formulas, Inc.) 4 mg/ml (0.4% w/v) in drinking water at 40 d of age. Body weights and vitals were monitored, and motor neuromuscular function were assessed every other day starting at 50 d of age until end point.
# (§2) To assess the efficacy of chemical chaperone 4-PBA in reducing ER stress, hexb^−/− mice were administered 4-PBA in their drinking water at 40 d of age and underwent behavioral testing beginning at 7 weeks of age. Utilizing several behavioral tests such as wire hang, body weight, and righting response, measures of degeneration of cerebellar and motor neuromuscular functions were collected (FIG. 14). […] Lastly, an analysis of survivability was conducted using a Mantel-Cox test (FIG. 14 D). […] Overall, an increase of 16 days was noted, with 127 days as the median survival age for untreated hexb^−/− mice and 143 days for 4-PBA treated hexb^−/− mice.
# [2] = tested on: hexb^−/− mice; test: Wire hang test in hexb−/− mice; conditions: hexb−/− mice treated with 4-PBA vs untreated
# Method: as §1, §2
# [3] = tested on: hexb^−/− mice; test: Righting reflex / righting response in hexb−/− mice
# Method: as §1, §2
# [4] = Body mass of hexb−/− mice; conditions: hexb−/− mice with 4-PBA compared to wildtype
# Method: as §1, §2
# [5] = tested on: phosphorylated eukaryotic initiation factor 2 alpha (p-eIF2α); test: Immunofluorescence of p-eIF2α and YY1 in spinal cord of hexb−/− mice
# Description: (§3) Protocol Two: Two groups of hexb^−/− mice at 40 d of age (n=4 per group) were set. […] Mice were perfused at 80 d, with formalin and processed for immunocytochemistry. Spine sections from treated and untreated mice were immunolabelled with multiple antibodies and evaluated.
# (§4) Spinal cords from hexb^+/+ and hexb^−/− mice were harvested at 40, 60, 80, 100, and 120 d and embedded in paraffin as described above. Samples were rehydrated, first by washing slides with xylene then by washing them with a 1:1 solution of xylene and ethanol (EtOH) followed by washes in 100% EtOH, 95% EtOH, 70% EtOH, 70% EtOH/1% lithium carbonate solution, 70% EtOH, and finally, 50% EtOH. Next, antigen retrieval in a sodium citrate buffer (pH 6) was performed by microwaving the slides at 1 min intervals until boiling and then maintaining a boil for 5 minutes. The slides were then washed with tap water followed by a wash in glycine. […]
# (§5) UPR activation was assessed through immunofluorescent staining of phosphorylated eukaryotic initiation factor 2 alpha (p-eIF2α) positive neurons and transcription factor YY1 in spinal cord sections from hexb^−/− mice that were treated or untreated with 4-PBA for (FIG. 15). […] Furthermore, the degree of apoptotic events occurring during disease pathogenesis with and without 4-PBA treatment was evaluated (FIG. 16). […]
# [6] = tested on: cleaved caspase 7; test: Immunofluorescence of cleaved caspase 7 and NeuN in spinal cord; conditions: after 4-PBA treatment vs untreated
# Description: as §3, §4, §5
# [7] = tested on: ChAT-positive motor neurons (AHNs); test: Immunofluorescence of ChAT and GFAP in anterior horn of spinal cord; conditions: 4-PBA treated hexb−/− mice
# Description: as §3
# (§6) Spinal cords from hexb^+/+ and hexb^−/− mice were harvested at 40, 60, 80, 100, and 120 d and embedded in paraffin as described above. Samples were rehydrated, first by washing slides with xylene then by washing them with a 1:1 solution of xylene and ethanol (EtOH) followed by washes in 100% EtOH, 95% EtOH, 70% EtOH, 70% EtOH/1% lithium carbonate solution, 70% EtOH, and finally, 50% EtOH. Next, antigen retrieval in a sodium citrate buffer (pH 6) was performed by microwaving the slides at 1 min intervals until boiling and then maintaining a boil for 5 minutes. The slides were then washed with tap water followed by a wash in glycine. Following, the slides were then incubated with bloxall blocking solution for 10 minutes, followed by a 5 minute wash with PBS. Slides were then blocked with 2.5% horse serum for 20 minutes. Samples were then double labelled with a combination of anti-GFAP (1:100, Sigma; G9269), anti-ChAT (1:200, SIGMA), anti-Calretinin (1:200, Proteintech) and anti-NeuN (1:100, novus biologicals; N.BP1-92693). Slides were incubated with antibodies overnight at 4° C. Samples were washed with 1×PBS+0.05% TWEEN20 for 3×5 minutes, prior to application of the secondary antibody. Following, slides were double labeled with appropriate Alexa Fluor secondaries (Invitrogen, goat anti-rabbit 488: A11037, goat anti-mouse 594: A11029) and then again washed with 1×PBS+0.05% TWEEN20. Finally, the slides were mounted with ProLong Diamond antifade mountant reagent with DAPI (Invitrogen: P36966). Samples were imaged using Ziess Axiovert 200 scope equipped with an HBO 100 mercury lamp.
# One of the hall marks of motor neurons within the spinal cord is the enzyme choline acetyltransferase (ChAT). […]
# [8] = tested on: Calretinin-positive interneurons; test: Immunofluorescence of Calretinin in spinal cord sections; conditions: 4-PBA treated hexb−/− mice
# Description: as §3
# as §6, with “Samples were washed with 1×PBS+0.05% TWEEN20 for 3×5 minutes, prior to application of the secondary antibody. Following, slides were double labeled with appropriate Alexa Fluor secondaries (Invitrogen, goat anti-rabbit 488: A11037, goat anti-mouse 594: A11029) and then again washed with 1×PBS+0.05% TWEEN20. Finally, the slides were mounted with ProLong Diamond antifade mountant reagent with DAPI (Invitrogen: P36966). Samples were imaged using Ziess Axiovert 200 scope equipped with an HBO 100 mercury lamp.” left out
# [9] = tested on: muscle fibers; test: Cross-sectional area of muscle fibers from muscles surrounding the spinal cord; conditions: 4-PBA treated hexb−/− mice, 80 d
# Description: as §3
# Neuromuscular deficits are a highly prevalent consequence of Sandhoff disease. Therefore, cell body sectional area of the anterior horn neurons and the cross-sectional area of muscle fibers from the muscles surrounding the spinal cord of 80 d hexb^+/+ and hexb^−/− mice were evaluated (FIG. 19). Within hexb^+/+ mice, muscle fibres have an average area of ˜1000 um^2 while in contrast hexb^−/− mice show a 44% reduction in area with an average of −570 um^2. Such a drastic reduction early in disease pathology indicates mass muscle atrophy and neuronal loss has already occurred.
# [10] = tested on: ATF6; test: ATF6 expression after 4-PBA treatment
smiles,measurement,setting,value
"O=C(O)CCCc1ccccc1 [4-PBA, 4-phenylbutyric acid]",survival / life span (in words),"[1]; hexb−/− mice with 4-PBA vs without, Mantel-Cox P<0.001",beneficial impact on lifespan; also recorded: significant improvement in motor neuromuscular function and life span; also recorded: lived significantly longer
same,median survival,"[1]; hexb−/− mice, 4-PBA 4 mg/ml (0.4% w/v) in drinking water from 40 d of age, untreated 127 days",143 days
same,increase of median survival over untreated hexb−/− mice,"[1]; hexb−/− mice, 4-PBA 4 mg/ml in drinking water from 40 d of age",16 days
same,wire hang time,[2],significant increase in wire hang time; also recorded: longer wire hang
same,righting reflex / righting response time,[3]; hexb−/− mice treated with 4-PBA vs untreated,significantly faster righting response; also recorded: significantly faster righting reflex
same,delay in righting response time impairment,[3]; treated vs untreated hexb−/− mice (untreated impaired by 17 weeks of age),2 week
same,body mass,[4],restored hexb^−/− mice weights to wildtype levels
same,nuclear localization of p-eIF2α,[5]; hexb−/− mice after 4-PBA treatment vs untreated,increase in the nuclear localization
same,number of cytosolic p-eIF2α-positive neurons in spinal cord,"[5]; hexb−/− mice treated with 4-PBA from 40 d, perfused at 80 d, vs untreated",significant reduction
same,number of cCas7 positive neurons in spinal cord,[6],significant reduction in the number of cCas7 positive neurons; also recorded: suppressed c-Cas7
same,C-boutons,[7],more prevalent around AHNs motor neurons and throughout the anterior horn
same,ChAT staining / ChAT-positive motor neurons in anterior horn,[7],ChAT staining was normalized; also recorded: intense cytosolic ChAT staining within viable AHNs; also recorded: ChAT-positive motor neurons were maintained in anterior horn
same,GFAP staining in anterior horn,[7],intense GFAP staining
same,Calretinin-positive interneurons within the anterior horn region,[8],very little Calretinin-positive interneurons
same,muscle fiber cross-sectional area vs hexb+/+ (in words),[9],no significant difference; also recorded: maintained normal cross section area of muscle fibers
same,muscle fiber cross-sectional area (average),"[9]; hexb+/+ ~1000, untreated hexb−/− ~570",900 um^2 and 850 um^2
same,ATF6 expression,[10],upregulation of ATF6
